Where a SMILES comes first, the peptide text is derived from it. Bridges are numbered along the chain shown (N, C = ends).
test: Inhibition of his-tagged recombinant human IL-11 (22 to 199 residues) expressed in HEK293 cells/biotinylated recombinant human IL-11Ralpha (24 to 370 residues) expressed in HEK293 cells incubated for 1 hr by AlphaLISA assay; type: cell-based

SMILES	Ki [µM]
CSCC[C@@H]1NC(=O)[C@H](Cc2c[nH]cn2)NC(=O)[C@H](CO)NC(=O)[C@@H](NC(C)=O)CSSC[C@@H](C(=O)N[C@@H](Cc2c[nH]c3ccccc23)C(=O)N[C@@H](CCCNC(=N)N)C(N)=O)NC(=O)[C@H](C(C)C)NC(=O)[C@H]([C@@H](C)O)NC(=O)[C@H]([C@@H](C)O)NC(=O)[C@H](Cc2ccc(O)cc2)NC(=O)[C@H](Cc2ccc(O)cc2)NC1=O (Ac-CSHMYYTTVCWR-NH2; disulfide 1-10)	> 28
CC(=O)N[C@H]1CSSC[C@@H](C(N)=O)NC(=O)[C@H](C(C)C)NC(=O)[C@H](Cc2ccc(O)cc2)NC(=O)[C@H](Cc2c[nH]c3ccccc23)NC(=O)[C@H](Cc2c[nH]c3ccccc23)NC(=O)[C@H](Cc2c[nH]cn2)NC(=O)[C@H](Cc2ccc(O)cc2)NC(=O)[C@@H]2CCCN2C(=O)[C@H](CCCCN)NC(=O)[C@H](Cc2c[nH]c3ccccc23)NC1=O (Ac-CWKPYHWWYVC-NH2; disulfide 1-11)	2.5
CSCC[C@@H]1NC(=O)[C@H](Cc2c[nH]cn2)NC(=O)[C@H](CO)NC(=O)[C@@H](NC(=O)[C@H](Cc2c[nH]c3ccccc23)NC(=O)[C@H](Cc2ccc(O)cc2)NC(=O)[C@H](Cc2ccccc2)NC(C)=O)CSSC[C@@H](C(=O)N[C@@H](Cc2c[nH]c3ccccc23)C(=O)N[C@@H](CCCNC(=N)N)C(N)=O)NC(=O)[C@H](C(C)C)NC(=O)[C@H]([C@@H](C)O)NC(=O)[C@H]([C@@H](C)O)NC(=O)[C@H](Cc2ccc(O)cc2)NC(=O)[C@H](Cc2ccc(O)cc2)NC1=O (Ac-FYWCSHMYYTTVCWR-NH2; disulfide 4-13)	0.33
CC(=O)NCC(=O)N[C@@H](Cc1c[nH]c2ccccc12)C(=O)N[C@H]1CSSC[C@@H](C(=O)N[C@@H](CC(C)C)C(=O)N[C@@H](CCCNC(=N)N)C(N)=O)NC(=O)[C@H](Cc2c[nH]c3ccccc23)NC(=O)[C@H](C)NC(=O)[C@H](CO)NC(=O)[C@H](Cc2ccc(O)cc2)NC(=O)[C@H](Cc2ccc(O)cc2)NC(=O)CNC(=O)[C@H](CCCCN)NC(=O)[C@H](Cc2c[nH]c3ccccc23)NC1=O (Ac-GWCWKGYYSAWCLR-NH2; disulfide 3-12)	1.1
CSCC[C@@H]1NC(=O)[C@H](Cc2c[nH]cn2)NC(=O)[C@H](CO)NC(=O)[C@@H](NC(=O)[C@H](Cc2c[nH]c3ccccc23)NC(=O)[C@H](Cc2ccc(O)cc2)NC(=O)[C@H](Cc2ccccc2)NC(=O)[C@H](CCC(N)=O)NC(C)=O)CSSC[C@@H](C(=O)N[C@@H](Cc2c[nH]c3ccccc23)C(=O)N[C@@H](CCCNC(=N)N)C(N)=O)NC(=O)[C@H](C(C)C)NC(=O)[C@H]([C@@H](C)O)NC(=O)[C@H]([C@@H](C)O)NC(=O)[C@H](Cc2ccc(O)cc2)NC(=O)[C@H](Cc2ccc(O)cc2)NC1=O (Ac-QFYWCSHMYYTTVCWR-NH2; disulfide 5-14)	0.27
CSCC[C@@H]1NC(=O)[C@H](Cc2c[nH]cn2)NC(=O)[C@H](CO)NC(=O)[C@@H](NC(=O)[C@H](Cc2c[nH]c3ccccc23)NC(=O)[C@H](Cc2ccc(O)cc2)NC(=O)[C@H](Cc2ccccc2)NC(=O)[C@H](CCC(N)=O)NC(=O)[C@@H](NC(=O)[C@@H](NC(=O)[C@H](CCC(N)=O)NC(C)=O)[C@@H](C)O)C(C)C)CSSC[C@@H](C(=O)N[C@@H](Cc2c[nH]c3ccccc23)C(=O)N[C@@H](CCCNC(=N)N)C(N)=O)NC(=O)[C@H](C(C)C)NC(=O)[C@H]([C@@H](C)O)NC(=O)[C@H]([C@@H](C)O)NC(=O)[C@H](Cc2ccc(O)cc2)NC(=O)[C@H](Cc2ccc(O)cc2)NC1=O (Ac-QTVQFYWCSHMYYTTVCWR-NH2; disulfide 8-17)	0.8
CSCC[C@@H]1NC(=O)[C@H](Cc2c[nH]cn2)NC(=O)[C@H](CO)NC(=O)[C@@H](NC(=O)[C@H](Cc2c[nH]c3ccccc23)NC(=O)[C@H](Cc2ccc(O)cc2)NC(=O)[C@H](Cc2ccccc2)NC(=O)[C@H](CCC(N)=O)NC(=O)[C@@H](NC(=O)[C@@H](NC(C)=O)[C@@H](C)O)C(C)C)CSSC[C@@H](C(=O)N[C@@H](Cc2c[nH]c3ccccc23)C(=O)N[C@@H](CCCNC(=N)N)C(N)=O)NC(=O)[C@H](C(C)C)NC(=O)[C@H]([C@@H](C)O)NC(=O)[C@H]([C@@H](C)O)NC(=O)[C@H](Cc2ccc(O)cc2)NC(=O)[C@H](Cc2ccc(O)cc2)NC1=O (Ac-TVQFYWCSHMYYTTVCWR-NH2; disulfide 7-16)	0.9

Reference: ChEMBL document CHEMBL6114953, “De novo discovery of cyclic peptide inhibitors of IL-11 signaling” (Bioorg Med Chem, 2025)
